Measured values taken from article PMC11942279, “Multiple Inhibitory Mechanisms of DS16570511 Targeting Mitochondrial Calcium Uptake: Insights from Biochemical Analysis of Rat Liver Mitochondria” (International Journal of Molecular Sciences, 2025).

Assays:
rat liver mitochondria = assay: Comparison with uncouplers on mitochondrial oxygen consumption; assay type: biochemical; conditions: 10 mM succinate, DS16570511 50 or 200 µM
Experimental: Figure 4 Comparison of the effects of DS16570511 and uncouplers on mitochondrial oxygen consumption. Mitochondria (Mt), 10 mM succinate (Succ), and each compound (50 or 200 µM DS16570511 [DS], SF6847 [SF], or alamethicin [Ala]) were added to Pi medium at the time points indicated by arrows. Changes in the concentration of dissolved oxygen in the reaction medium were measured using an oxygen electrode. Representative traces are shown. “natomsO” denotes the nanomoles of oxygen atoms in the reaction medium.
The rate of mitochondrial oxygen consumption was measured using a Clark-type oxygen electrode (YSI5331, Yellow Springs Instrument Co., Ltd., Yellow Springs, OH, USA) at 25 °C in 2.2 mL of Pi medium preincubated with 2.5 µM CsA. When electrons were supplied via respiratory chain complex I, 5 mM glutamate and 5 mM malate were used as respiratory substrates. For electrons supplied via respiratory chain complex II, 0.68 µg/mL rotenone was added beforehand to inhibit electron transfer from endogenous respiratory chain complex I, and 10 mM succinate was used as the respiratory substrate. The degree of inhibition and IC50 values of DS16570511 were calculated based on the oxygen consumption rate over a 3 min period, starting 30 s after the addition of SF6847.

[1] = target: T1, respiratory chain complex II (Rattus norvegicus, UniProt P21913+Q641Z9+Q6PCT8+Q920L2); assay: Mitochondrial oxygen consumption with succinate as respiratory substrate; assay type: biochemical
T1 construct: from tissue; host or cells: rat liver mitochondria (male Wistar rats)
T1 sequence (Q920L2 35-656): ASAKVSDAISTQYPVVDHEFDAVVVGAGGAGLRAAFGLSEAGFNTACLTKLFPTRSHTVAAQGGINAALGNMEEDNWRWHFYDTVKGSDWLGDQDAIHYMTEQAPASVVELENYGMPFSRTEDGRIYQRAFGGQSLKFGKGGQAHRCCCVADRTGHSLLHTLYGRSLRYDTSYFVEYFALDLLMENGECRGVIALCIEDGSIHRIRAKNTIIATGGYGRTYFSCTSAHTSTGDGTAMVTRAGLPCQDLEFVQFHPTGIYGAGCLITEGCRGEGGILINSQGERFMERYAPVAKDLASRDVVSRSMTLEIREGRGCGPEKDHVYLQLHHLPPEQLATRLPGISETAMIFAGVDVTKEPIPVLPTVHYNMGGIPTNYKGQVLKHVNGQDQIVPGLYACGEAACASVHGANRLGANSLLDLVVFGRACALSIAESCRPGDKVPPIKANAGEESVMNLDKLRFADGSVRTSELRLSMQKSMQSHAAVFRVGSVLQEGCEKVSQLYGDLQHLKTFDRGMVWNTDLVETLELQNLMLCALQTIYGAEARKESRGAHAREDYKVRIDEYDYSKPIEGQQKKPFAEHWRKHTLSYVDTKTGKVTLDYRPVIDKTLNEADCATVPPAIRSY
T1 sequence (P21913 31-282): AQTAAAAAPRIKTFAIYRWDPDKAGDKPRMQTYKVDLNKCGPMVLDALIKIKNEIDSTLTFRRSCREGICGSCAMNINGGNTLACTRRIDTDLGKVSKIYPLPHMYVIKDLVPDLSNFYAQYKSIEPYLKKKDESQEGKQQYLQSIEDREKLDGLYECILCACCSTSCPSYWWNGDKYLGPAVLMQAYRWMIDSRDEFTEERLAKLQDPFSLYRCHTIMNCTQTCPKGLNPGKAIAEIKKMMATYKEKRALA
T1 sequence (Q641Z9 30-169 limits assumed): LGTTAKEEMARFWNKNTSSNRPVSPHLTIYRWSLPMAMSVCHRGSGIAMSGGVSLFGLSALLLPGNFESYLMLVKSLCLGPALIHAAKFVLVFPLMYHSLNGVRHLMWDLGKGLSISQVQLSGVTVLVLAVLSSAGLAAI
T1 sequence (Q6PCT8 57-159): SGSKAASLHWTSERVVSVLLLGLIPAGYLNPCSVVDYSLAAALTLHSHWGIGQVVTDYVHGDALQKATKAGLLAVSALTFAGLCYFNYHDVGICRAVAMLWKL
Experimental: Figure 5 Effect of DS16570511 on oxygen consumption in the presence of succinate. (a) Mitochondria (Mt), 10 mM succinate, and 0.1 µM SF6847 were added to Pi medium containing the indicated concentrations of DS16570511 or antimycin at the time points marked by arrows. Changes in dissolved oxygen concentration in the reaction medium were measured, and representative traces are shown. “natomsO” denotes the nanomoles of oxygen atoms in the reaction medium. (b) The degree of inhibition was calculated from the rate of oxygen consumption over a 3 min period, measured 30 s after SF6847 addition. […] Data are presented as the mean ± standard deviation of independent experiments (n = 3).
(§1) Livers were harvested from 6- to 18-week-old male Wistar rats (Japan SLC, Shizuoka, Japan), and mitochondria were isolated as previously described. All animal experiments complied with the University of Tokushima Guidelines for the Care and Use of Laboratory Animals (approval number: T28-29). Mitochondrial protein concentrations were measured using the Biuret method with bovine serum albumin as the standard in the presence of 1% SDS.
When electrons were supplied via respiratory chain complex I, 5 mM glutamate and 5 mM malate were used as respiratory substrates. For electrons supplied via respiratory chain complex II, 0.68 µg/mL rotenone was added beforehand to inhibit electron transfer from endogenous respiratory chain complex I, and 10 mM succinate was used as the respiratory substrate.

Ca2+ uptake = conditions: read-out: IC50 for inhibition of Ca2+ uptake; cited from earlier work
[2] = system: membrane potential in rat liver mitochondria; assay: Measurement of mitochondrial membrane potential formation (DiSC3(5)); assay type: biochemical; conditions: 10 mM succinate, first 5 s after succinate addition, read-out: IC50 for inhibition of membrane potential formation
Experimental: Figure 3 Effect of DS16570511 on membrane potential in rat liver mitochondria. (a) Rat liver mitochondria were incubated in Pi medium containing the indicated concentrations of DS16570511 or antimycin. At the time points indicated by arrows, 10 mM succinate was added as a respiratory substrate, and membrane potential was measured using 3 µM DiSC3(5) as a probe. Representative traces are shown. (b) The degree of inhibition was calculated from the rate of membrane potential formation during the first 5 s after succinate addition, with 0% inhibition in the absence of DS16570511 (none) and 100% inhibition in the presence of SF6847. […]
(§2) Livers were harvested from 6- to 18-week-old male Wistar rats (Japan SLC, Shizuoka, Japan), and mitochondria were isolated as previously described. […] Mitochondrial protein concentrations were measured using the Biuret method with bovine serum albumin as the standard in the presence of 1% SDS.
DiSC3(5) (3 µM) was used as a fluorescent probe to measure mitochondrial membrane potential in 2.2 mL of Pi medium. Fluorescence intensity was measured using an F-2700 spectrofluorometer (HITACHI, Tokyo, Japan) with excitation and emission wavelengths of 643 and 666 nm, respectively. Fluorescence intensity was recorded after adding 10 mM succinate to Pi medium containing 2.5 µM CsA, 0.68 µg/mL rotenone, 0.42 mg protein/mL mitochondria, and DS16570511. […]

[3] = system: respiratory chain complexes I–III–IV; assay: Mitochondrial oxygen consumption with glutamate and malate as respiratory substrates; assay type: biochemical; conditions: rat liver mitochondria, 5 mM glutamate, 5 mM malate, 0.1 µM SF6847; read-out: IC50 for inhibition of oxygen consumption (glutamate and malate; respiratory chain complexes I–III–IV)
Experimental: Figure 6 Effect of DS16570511 on oxygen consumption in the presence of glutamate and malate. (a) Mitochondria (Mt), 5 mM glutamate, 5 mM malate, and 0.1 µM SF6847 were added to Pi medium containing the indicated concentrations of DS16570511 or antimycin at the time points marked by arrows. Changes in dissolved oxygen concentration in the reaction medium were measured, and representative traces are shown. “natomsO” denotes the nanomoles of oxygen atoms in the reaction medium. (b) The degree of inhibition was calculated from the rate of oxygen consumption over a 3 min period, measured 30 s after SF6847 addition. Results are expressed as 0% inhibition in the absence of DS16570511 (none) and 100% inhibition with antimycin. Data are presented as the mean ± standard deviation of independent experiments (n = 3).
as §2
The rate of mitochondrial oxygen consumption was measured using a Clark-type oxygen electrode (YSI5331, Yellow Springs Instrument Co., Ltd., Yellow Springs, OH, USA) at 25 °C in 2.2 mL of Pi medium preincubated with 2.5 µM CsA. […]

FoF1-ATPase/ANT = assay: Mitochondrial FoF1-ATPase activity (pH electrode); assay type: biochemical; conditions: rat liver mitochondria, 1 mM ATP, antimycin, pH change over 3 min; read-out: IC50 for inhibition of FoF1-ATPase/ANT activity (pH decrease)
Experimental: Figure 7 Effect of DS16570511 on mitochondrial FoF1-ATPase activity. (a) Schematic representation of mitochondrial FoF1-ATPase activity: ATP enters the matrix via ANT and is hydrolyzed to ADP by FoF1-ATPase, driving proton extrusion from the matrix and decreasing the reaction medium pH. […] (b) Mitochondria were added to the incubation medium containing the indicated concentrations of DS16570511 or oligomycin, and pH changes in the medium were measured using a pH electrode. Representative traces are shown. (c) Inhibition was calculated from the pH change over a 3 min period, starting 30 s after adding mitochondria. Results are expressed as 0% inhibition in the absence of DS16570511 and 100% inhibition with oligomycin. Data are presented as the mean ± standard deviation of independent experiments (n = 3).
as §1
Mitochondrial FoF1-ATPase activity was measured using a modified version of the classical pH electrode-based method. […]

[4] = system: mitochondrial Ca2+ uptake in rat liver mitochondria; assay: Mitochondrial Ca2+ uptake assay (succinate-energized, Fluo-5); assay type: biochemical; conditions: 10 mM succinate, Ca2+ uptake rate during first 30 s after adding mitochondria, read-out: IC50 for inhibition of mitochondrial Ca2+ uptake
Experimental: Figure 2 Effect of DS16570511 on mitochondrial Ca^2+ uptake activity in rat liver mitochondria. (a) Mitochondrial Ca^2+ uptake activity was measured in isolated rat liver mitochondria. Mitochondria were added to Pi medium containing the indicated concentrations of DS16570511 or ruthenium 360, and changes in extramitochondrial Ca^2+ concentration over time were analyzed based on Fluo-5 fluorescence intensity. Representative traces are shown. (b) The degree of inhibition was calculated from the Ca^2+ uptake rate during the first 30 s after adding mitochondria. Data are expressed as 0% inhibition in the absence of DS16570511 (none) and 100% inhibition in the presence of ruthenium 360. […]
as §2
Fluo-5 (1 µM) was used as a Ca^2+-sensitive fluorescence indicator in 1 mL of Pi medium (250 mM sucrose, 10 mM Tris-MOPS, 10 µM EGTA-Tris, 0.5 mg/mL bovine serum albumin, and 10 mM KPi, pH 7.4). Fluorescence intensity was measured using an F-2700 spectrofluorometer (HITACHI, Tokyo, Japan) with excitation and emission wavelengths of 494 and 516, respectively. […]

mice = system: mice; set-up: method as in PMID 32126877, PMID 38779706; conditions: cited from earlier work
[5] = rat liver mitochondria, succinate

CC(C)(C)c1cc(C=C(C#N)C#N)cc(C(C)(C)C)c1O [SF6847]
Effect on mitochondrial oxygen consumption (uncoupling test, in words) (rat liver mitochondria): markedly increased oxygen consumption

CCOC(=O)CCCn1cc(C(=O)c2cccc(NCc3c(-c4c(Cl)cccc4Cl)noc3C)c2)c2ccccc21 [Compound 2]
Inhibitory activity on oxygen consumption via respiratory chain complex II (in words) [1, 5]: completely lacked inhibitory activity

alamethicin
Effect on mitochondrial oxygen consumption (uncoupling test, in words) (rat liver mitochondria): markedly increased oxygen consumption

N.N.N.N.N.N.N.N.O=CO.O=CO.[O-2].[Ru+3].[Ru+4] [Ruthenium 360]
IC50 (Ca2+ uptake): 0.184 nM

Cc1onc(-c2c(Cl)cccc2Cl)c1CNc1cccc(C(=O)c2cn(CCCC(=O)O)c3ccccc23)c1 [DS16570511]
Effect on mitochondrial oxygen consumption (uncoupling test, in words) (rat liver mitochondria): reduced the rate of oxygen consumption | IC50 [2]: 10.8 µM | IC50 [3]: 40.9 µM | IC50 (FoF1-ATPase/ANT): 97.2 µM | IC50 [4]: 9.2 µM | IC50 [1]: 9.5 µM | Inhibition of oxygen consumption at a single concentration (in words) ([1]; 200 µM, rat liver mitochondria, succinate, SF6847): inhibited oxygen consumption to the same extent as antimycin

N.N.N.N.N.N.N.N.[Cl][Ru+3].[N-]=[Ru][Cl] [ruthenium 265]
Adverse effect after intraperitoneal administration (mice): caused seizure-like movements

Cc1onc(-c2c(Cl)cccc2Cl)c1/C=N/c1cccc(C(=O)c2cn(CCCC(=O)O)c3ccccc23)c1 [Compound 3]
IC50 [1]: 52.7 µM

CCOC(=O)CCCn1cc(C(=O)c2cccc(/N=C/c3c(-c4c(Cl)cccc4Cl)noc3C)c2)c2ccccc21 [Compound 4]
Inhibitory activity on oxygen consumption via respiratory chain complex II (in words) [1, 5]: completely lacked inhibitory activity
